Patent publication US6670365B1, “Substituted imidazo 1,2a}azines as selective inhibitors of cox-2” (Laboratorios S.A.L.V.A.T., S.A., priority 1998, dated 2003)

Columns and labels:
COX-2 = molecular target: T1, COX-2 (Homo sapiens, UniProt P35354); test: Assay for in vitro COX-2 inhibition in LPS-stimulated human whole blood (PGE2 by EIA); assay type: cell-based; conditions: for IC50: human whole blood, compound 0.1 to 25 μM, 15 minutes at 37° C., LPS 100 μg/mL for 24 h, PGE2 levels in plasma by EIA; for selective COX-2 inhibitory activity (COX-2 in preference to COX-1): in vitro, statement in words referring to Table 1
T1 construct: endogenous in cells; host or cells: human whole blood from volunteers, stimulated with LPS
T1 sequence (P35354 18-604): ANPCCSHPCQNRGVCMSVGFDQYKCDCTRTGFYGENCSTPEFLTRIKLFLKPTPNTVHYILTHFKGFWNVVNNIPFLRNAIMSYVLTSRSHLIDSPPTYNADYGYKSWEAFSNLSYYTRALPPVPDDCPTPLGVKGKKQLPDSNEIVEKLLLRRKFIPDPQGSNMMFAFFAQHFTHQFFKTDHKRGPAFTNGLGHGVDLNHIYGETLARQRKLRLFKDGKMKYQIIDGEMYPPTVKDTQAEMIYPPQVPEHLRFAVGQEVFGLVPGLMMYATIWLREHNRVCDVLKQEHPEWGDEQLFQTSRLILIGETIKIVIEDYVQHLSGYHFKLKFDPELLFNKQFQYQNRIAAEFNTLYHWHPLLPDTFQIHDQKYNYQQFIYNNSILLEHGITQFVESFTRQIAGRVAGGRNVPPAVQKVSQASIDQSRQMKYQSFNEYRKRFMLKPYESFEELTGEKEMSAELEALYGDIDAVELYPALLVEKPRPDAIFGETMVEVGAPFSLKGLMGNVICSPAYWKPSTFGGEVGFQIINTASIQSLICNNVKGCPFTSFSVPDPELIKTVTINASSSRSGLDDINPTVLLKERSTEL
Method: Assay for in vitro COX-2 Inhibition
Human whole blood from volunteers with no apparent inflammatory conditions and not having taken any NSAIDs for at least 15 days prior to blood collection was used to evaluate the COX-2 inhibitory effect of the synthesized compounds. […] At the end of the incubation, the blood was centrifuged at 10.000 rpm to obtain plasma, and the samples were stored at −80° C. PGE2 levels in plasma were established using EIA (Cayman Chemical).

COX-1 = molecular target: T2, COX-1 (Homo sapiens, UniProt P23219); test: Assay for in vitro COX-1 inhibition in fresh whole blood without anticoagulants (TXB2 by EIA); assay type: cell-based; conditions: no anticoagulants, compound 0.1 to 100 μM, 37° C. for 1 hour, TXB2 levels in plasma by EIA
T2 construct: Fresh blood was collected into sterile containers with no anticoagulants; endogenous in cells; host or cells: fresh whole blood without anticoagulants (platelet COX-1, TXB2 read-out)
T2 sequence (P23219 24-599): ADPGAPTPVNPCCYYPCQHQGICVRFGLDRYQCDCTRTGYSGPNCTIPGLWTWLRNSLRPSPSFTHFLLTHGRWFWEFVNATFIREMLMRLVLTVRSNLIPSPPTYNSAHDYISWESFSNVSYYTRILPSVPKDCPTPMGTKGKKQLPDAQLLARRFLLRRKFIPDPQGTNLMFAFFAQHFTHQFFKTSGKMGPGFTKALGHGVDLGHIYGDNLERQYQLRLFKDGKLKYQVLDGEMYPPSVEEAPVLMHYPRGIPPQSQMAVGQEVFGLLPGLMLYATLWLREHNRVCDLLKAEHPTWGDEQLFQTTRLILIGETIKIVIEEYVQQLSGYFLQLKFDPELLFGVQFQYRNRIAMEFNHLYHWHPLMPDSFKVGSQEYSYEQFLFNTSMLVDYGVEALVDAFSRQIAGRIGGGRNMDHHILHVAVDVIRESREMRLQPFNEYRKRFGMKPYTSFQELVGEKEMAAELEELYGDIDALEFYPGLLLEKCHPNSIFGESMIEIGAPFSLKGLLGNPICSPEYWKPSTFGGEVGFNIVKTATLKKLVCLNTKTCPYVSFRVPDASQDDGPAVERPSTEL
Method: Assay for in vitro COX-1 Inhibition
Fresh blood was collected into sterile containers with no anticoagulants. Aliquots of 500 μL were immediately transferred to eppendorf tubes, preloaded with a test compound each, at final concentrations varying from 0.1 to 100 μM. The eppendorf tubes were vortexed and incubated at 37° C. for 1 hour. At the end of incubation, plasma was obtained by centrifugation and stored at −80° C. TXB2 levels in plasma were established using EIA (Cayman Chemical).

IC50 (COX-2) [µM]	IC50 (COX-1) [µM]	Compound	selective COX-2 inhibitory activity (COX-2 in preference to COX-1) (COX-2)
5.5	> 50	CS(=O)(=O)c1ccc(-c2c(-c3ccccc3)nc3ncccn23)cc1 [Product Ia, 2-phenyl-3-(4-methylsulfonylphenyl)imidazo [1,2a]pyrimidine]	–
3.1	–	Cc1cccc(-c2nc3ccccn3c2-c2ccc(S(N)(=O)=O)cc2)c1 [Product Ippp, 2-(3-methylphenyl)-3-(4-aminosulfonylphenyl)imidazo[1,2a]pyridine]	–
> 10	> 50	CS(=O)(=O)c1ccc(-c2c(-c3ccc(Cl)cc3)nc3ncccn23)cc1 [Product Id, 2-(4-chlorophenyl)-3-(4-methylsulfonylphenyl)imidazo[1,2a]pyrimidine]	–
> 5	> 100	Cc1ccccc1-c1nc2ccccn2c1-c1ccc(S(N)(=O)=O)cc1 [Product Innn, 2-(2-methylphenyl)-3-(4-aminosulfonylphenyl)imidazo[1,2a]pyridine]	–
6.8	82	COc1ccc(-c2nc3ccccn3c2-c2ccc(S(C)(=O)=O)cc2)cc1Cl [Product Ihhh, 2-(3-chloro-4-methoxyphenyl)-3-(4-methylsulfonylphenyl)imidazo[1,2a]pyridine]	–
–	> 50	Cc1ccc(-c2nc3ncccn3c2-c2ccc(S(C)(=O)=O)cc2)cc1 [Product Ib, 2-(4-methylphenyl)-3-(4-methylsulfonylphenyl)imidazo[1,2a]pyrimidine]	–
1.4	25	COc1ccc(-c2nc3ncccn3c2-c2ccc(S(C)(=O)=O)cc2)cc1 [Product If, 2-(4-methoxyphenyl)-3-(4-methylsulfonylphenyl)imidazo[1,2a]pyrimidine]	specially selective COX-2 inhibitory activity
2.2	50	2-(4-fluorophenyl)-3-(4-methylsulfonylphenyl)imidazo[1,2a][1,2,4]triazine [Product Ibb]	–
1	45	COc1ccc(-c2nc3ccccn3c2-c2ccc(S(C)(=O)=O)cc2)cc1C [Product Ifff, 2-(3-methyl-4-methoxyphenyl)-3-(4-methylsulfonylphenyl)imidazo[1,2a]pyridine]	–
3.3	40	COc1ccc(-c2nc3ccccn3c2-c2ccc(S(C)(=O)=O)cc2)cc1 [Product Iccc, 2-(4-methoxyphenyl)-3-(4-methylsulfonylphenyl)imidazo[1,2a]pyridine]	–
1	–	CCOc1ccc(-c2nc3ncccn3c2-c2ccc(S(C)(=O)=O)cc2)cc1 [Product Ig, 2-(4-ethoxyphenyl)-3-(4-methylsulfonylphenyl)imidazo[1,2a]pyrimidine]	specially selective COX-2 inhibitory activity
3.8	> 50	2-phenyl-3-(4-aminosulfonylphenyl)imidazo[1,2a][1,2,4]triazine [Product Idd]	–
3.5	80	CCOc1ccc(-c2nc3ccccn3c2-c2ccc(S(C)(=O)=O)cc2)cc1 [Product Iddd, 2-(4-ethoxyphenyl)-3-(4-methylsulfonylphenyl)imidazo[1,2a]pyridine]	–
–	100	2-(3-fluorophenyl)-3-(4-aminosulfonylphenyl)imidazo[1,2a][1,2,4]triazine [Product Ihh]	–
3.9	61	COc1ccc(-c2nc3ncccn3c2-c2ccc(S(C)(=O)=O)cc2)cc1Cl [Product Ik, 2-(3-chloro-4-methoxyphenyl)-3-(4-methylsulfonylphenyl)imidazo[1,2a]pyrimidine]	–
2.2	30	COc1ccc(-c2nc3ncccn3c2-c2ccc(S(C)(=O)=O)cc2)cc1C [Product Ii, 2-(3-methyl-4-methoxyphenyl)-3-(4-methylsulfonylphenyl)imidazo[1,2a]pyrimidine]	–
4.2	2	Cc1ccn2c(-c3ccc(S(C)(=O)=O)cc3)c(-c3ccc(C)c(C)c3)nc2n1 [Product In, 7-methyl-2-(3,4-dimethylphenyl)-3-(4-methylsulfonylphenyl)imidazo[1,2a]pyrimidine]	–
2.8	10	2-(3-methylphenyl)-3-(4-aminosulfonylphenyl)imidazo[1,2a][1,2,4]triazine [Product Igg]	–
> 10	> 100	NS(=O)(=O)c1ccc(-c2c(-c3cccc(F)c3)nc3ccccn23)cc1 [Product Iqqq, 2-(3-fluorophenyl)-3-(4-aminosulfonylphenyl)imidazo[1,2a]pyridine]	–
4.5	> 50	Cc1ccc(-c2nc3ncccn3c2-c2ccc(S(N)(=O)=O)cc2)cc1 [Product Io, 2-(4-methylphenyl)-3-(4-aminosulfonylphenyl)imidazo[1,2a]pyrimidine]	–
2.9	> 50	CS(=O)(=O)c1ccc(-c2c(-c3ccc(F)cc3)nc3ncccn23)cc1 [Product Ic, 2-(4-fluorophenyl)-3-(4-methylsulfonylphenyl)imidazo[1,2a]pyrimidine]	specially selective COX-2 inhibitory activity
1.7	25	COc1ccc(-c2nc3ccccn3c2-c2ccc(S(N)(=O)=O)cc2)cc1C [Product Iuuu, 2-(3-methyl-4-methoxyphenyl)-3-(4-aminosulfonylphenyl)imidazo[1,2a]pyridine]	–
2.8	> 50	Cc1ccc(-c2nc3ncccn3c2-c2ccc(S(C)(=O)=O)cc2)cc1C [Product Ih, 2-(3,4-dimethylphenyl)-3-(4-methylsulfonylphenyl)imidazo[1,2a]pyrimidine]	–
3.1	76	2-phenyl-3-(4-methylsulfonylphenyl)imidazo[1,2a][1,2,4]triazine [Product Iaa]	–
